Measurements published in patent publication US20250327032A1, “AGENT FOR AVOIDING IMMUNE RESPONSE OF TRANSGENIC CELLS” (HYPERION DRUG DISCOVERY CO., LTD., priority 2021, published 2025).

Tests used:
Type in all cases: cell-based
human myoblasts [1] = assay: Introduction of GFP viral vector (polybrene method), yield of GFP-positive cells; conditions: calcitriol 1 μM; viral vector MOI 0.1, 5 or 10, polybrene 0, 5 or 10 μg/mL; depending on the transduction conditions
Description: Human mesenchymal stem cells were seeded in a 6-well plate to be about 2,000 cells/cm^2. Human myoblasts were seeded in another 6-well plate to be about 2,000 cells/cm^2. As a culture solution, a basal medium for each cell supplemented with JSH-23 was used. JSH-23 was added at 1 μM to the culture solution used for human mesenchymal stem cells, and at 0.1 μM to the culture solution used for human myoblasts. As a control, a basal medium, i.e., αMEM (+10% serum) for human mesenchymal stem cells and MCDB131 (+10% serum) for human myoblasts, to which 0.1% (v/v) DMSO instead of JSH-23 was added was used as a culture solution.
A mixed solution was prepared by mixing GFP viral vector and a polybrene solution. […]
Next, the above mixed solution was added to the plate seeded with human mesenchymal stem cells or human myoblasts, and cultured in a CO2 incubator at 37° C. for 24 hours.
Four days after the addition of the virus-free culture solution, the cells were detached with a cell detachment solution and centrifuged at 600×g for 5 minutes using a centrifuge, to collect the cells. The collected cells were counted using a hemocytometer. Furthermore, the GFP-positive percentage of the collected cells was measured using a flow cytometer. The yield of the number of GFP-positive cells was calculated from the number of cells counted and the GFP-positive percentage. […]

human myoblasts [2] = assay: Introduction of GFP mRNA by lipofection, yield of GFP-positive cells; conditions: calcitriol 1 μM
Description: (§1) Human mesenchymal stem cells were seeded in a 6-well plate to be about 10,000 cells/cm^2. Human myoblasts were seeded in another 6-well plate to be about 20,000 cells/cm^2. As a culture solution, a basal medium for each cell supplemented with 0.1, 1, or 10 μM of JSH-23 was used. As a control, a basal medium for each cell supplemented with 0.1% (v/v) DMSO instead of JSH-23 was used as a culture solution.
(§2) A lipofection solution was prepared by adding Lipofectamine RNAiMAX and fluorescent protein GFP mRNA to OptiMEM. As the GFP mRNA, that containing uridine or that containing pseudouridine instead of uridine was used. In addition, for those containing pseudouridine, a basal medium for each cell supplemented with 1 μM of JSH-23 was used, and as a control, a basal medium for each cell supplemented with 0.1% (v/v) DMSO instead of JSH-23 was used as a culture solution. It was prepared so that the amount of mRNA was 10 pg/cell for human mesenchymal stem cells and 5 pg/cell for human myoblasts. The prepared lipofection solution was mixed well according to the manufacturer's recommended protocol and allowed to stand at room temperature for about 15 minutes.
(§3) Next, each lipofection solution was added to the plate seeded with human mesenchymal stem cells or human myoblasts, and cultured in a CO2 incubator at 37° C. for about 1 day (18 hours) (human mesenchymal stem cells) or for 2 days (42 hours) (human myoblasts). After culturing, all the culture solution comprising the lipofection solution was removed and replaced with a new culture solution having the same composition as before the addition of the lipofection solution.
(§4) After another 6 hours, the above lipofection solution was newly prepared, added again to the plate seeded with human mesenchymal stem cells or human myoblasts, and cultured in a CO2 incubator at 37° C. for about 1 day (18 hours) (mesenchymal stem cells) or about 2 days (42 hours) (human myoblasts). These steps were repeated so that the introduction of genes was performed a total of 4 times.
(§5) Twenty-four hours after the final introduction of genes, the cells were detached with a cell detachment solution, centrifuged at 600×g for 5 minutes using a centrifuge, to collect the cells. The collected cells were counted using a hemocytometer. Furthermore, the GFP-positive percentage of the collected cells was measured using a flow cytometer. The yield of the number of GFP-positive cells was calculated from the number of cells counted and the GFP-positive rate.
as §1, with “1” for “0.1, 1, or 10”, “calcitriol” for “JSH-23”
(§6) A lipofection solution was prepared by adding Lipofectamine RNAiMAX and fluorescent protein GFP mRNA to OptiMEM. As the GFP mRNA, that containing uridine, or that containing pseudouridine instead of uridine was used. It was prepared so that the amount of mRNA was 10 pg/cell for human mesenchymal stem cells and 5 pg/cell for human myoblasts. The prepared lipofection solution was mixed well according to the manufacturer's recommended protocol and allowed to stand at room temperature for about 15 minutes.

[3] = system: human mesenchymal stem cells; assay: as above; conditions: calcitriol 1 μM; GFP mRNA containing pseudouridine instead of uridine, 10 pg/cell
Description: as §1, §2, §3, §4, §5
as §1, with “1” for “0.1, 1, or 10”, “calcitriol” for “JSH-23”
as §6

[4] = system: human mesenchymal stem cells; assay: Introduction of GFP mRNA with PEIMAX and other NFκB nuclear translocation inhibitors (Example 13), cell yield; conditions: GFP mRNA 10 pg/cell, PEIMAX
Description: Improvement in the yield of transgenic cells was investigated when using the NFκB nuclear translocation inhibitor of the present invention other than JSH-23 and calcitriol. Introduction of genes was performed using vitamin B6, vitamin C, vitamin E, and rolipram as an NFκB nuclear translocation inhibitor other than JSH-23 and calcitriol. The specific procedure is as follows.
Human mesenchymal stem cells were seeded in a 6-well plate to be about 10,000 cells/cm^2. As a culture solution, a basal medium supplemented with vitamin B6 and vitamin E at 2 μM and 10 μM, vitamin C at 20 μM and 100 μM, and rolipram at 10 μM was used. As a control, the basal medium for each cell supplemented with 0.1% (v/v) DMSO instead of each compound was used as a culture solution.
A lipofection solution was prepared by adding PEIMAX and fluorescent protein GFP mRNA to OptiMEM. It was prepared so that the amount of mRNA was 10 pg/cell. […]
as §5, with “cells. In addition, the” for “cells. The”, “GFP-positive percentage.” for “GFP-positive rate.”

C=C1/C(=C\C=C2/CCC[C@]3(C)[C@@H]([C@H](C)CCCC(C)(C)O)CC[C@@H]23)C[C@@H](O)C[C@@H]1O [calcitriol]
increase of the number of GFP-positive cells by adding calcitriol (human myoblasts [1]): about 4.5 times
yield of GFP-positive cells compared to the control (control set to 1) (human myoblasts [2]; GFP mRNA containing pseudouridine instead of uridine, 5 pg/cell): ≥ 4 times
yield of GFP-positive cells compared to the control (control set to 1) (human myoblasts [2]; GFP mRNA containing uridine, 5 pg/cell, second statement of b89): ≥ 5 times
yield of GFP-positive cells compared to the control (control set to 1) (human myoblasts [2]; GFP mRNA containing uridine, first statement of b89, printed as human myoblasts): ≥ 7 times
yield of GFP-positive cells compared to the control (control set to 1) [3]: ≥ 2.7 times

COc1ccc(C2CNC(=O)C2)cc1OC1CCCC1 (stereo not shown) [rolipram]
number of viable cells after introduction of genes relative to control (set to 1) ([4]; compound at 10 μM): about 1.3 times

Cc1ncc(CO)c(CO)c1O.Cl [vitamin B6]
number of viable cells after introduction of genes relative to control (set to 1) ([4]; compound at 2 μM and 10 μM): about 1.2 times
